Like-named read-outs stand apart in the source and are kept apart here.
Experiments:
[1] = target: GSK3α (GST-full length GSK3α) (Homo sapiens (Human), UniProt P49840); experiment: GSK3α TR-FRET kinase assay; format: biochemical
How it was run: (§1)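 In this time-resolved FRET format, kinase reactions contained 200 nM biotinylated, S645-phosphorylated glycogen synthase 631-650 peptide and either isoform-specific ATP (2 μM GSK3b, 4 μM GSK3α) or 1 mM ATP. They were quenched with EDTA after 100 min at ambient temperature. Inhibition curves gave IC50 values.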

[2] = target: GSK3b (GST-full length GSK3b) (Homo sapiens (Human), UniProt P49841); experiment: GSK3b TR-FRET kinase assay; format: biochemical
Chain of GSK3b (GST-full length GSK3b) (P49841 whole entry): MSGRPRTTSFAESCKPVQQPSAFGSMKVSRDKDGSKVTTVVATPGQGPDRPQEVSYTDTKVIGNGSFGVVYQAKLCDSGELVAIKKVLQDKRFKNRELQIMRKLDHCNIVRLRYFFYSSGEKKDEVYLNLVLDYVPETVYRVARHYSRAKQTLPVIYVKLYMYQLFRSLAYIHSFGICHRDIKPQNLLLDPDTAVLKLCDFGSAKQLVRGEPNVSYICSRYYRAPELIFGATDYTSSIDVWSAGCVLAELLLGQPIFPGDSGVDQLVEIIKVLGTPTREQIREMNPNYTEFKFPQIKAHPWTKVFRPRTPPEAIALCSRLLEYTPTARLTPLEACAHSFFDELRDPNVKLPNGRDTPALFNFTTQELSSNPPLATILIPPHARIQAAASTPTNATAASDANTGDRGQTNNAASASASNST
How it was run: as §1

[3] = 1 nM GSK3α, 4 μM ATP, 30 minute preincubation, Table 16, read-out: GSK3-A TR-FRET BIOCHEMICAL (TR-FRET)
[4] = 1 nM GSK3b, 2 μM ATP, 30 minute preincubation, Table 16, read-out: GSK3-B TR-FRET BIOCHEMICAL (TR-FRET)
[5] = 1 nM GSK3α, 4 μM ATP, 30 minute preincubation, geometric mean, read-out: GSK3-A TR-FRET BIOCHEMICAL (TR-FRET), GMean, IC50
[6] = 1 nM GSK3b, 2 μM ATP, 30 minute preincubation, geometric mean, read-out: GSK3-B TR-FRET BIOCHEMICAL (TR-FRET), GMean, IC50
[7] = 1 nM GSK3α, 4 μM ATP, 30 minute preincubation, Table 16, read-out: GSK3-A TR-FRET BIOCHEMICAL (TR-FRET), IC50
[8] = read-out: GSK3-A (TR-FRET 1 mM ATP), GMean, IC50, 1 mM ATP, geometric mean
[9] = 1 nM GSK3b, 2 μM ATP, 30 minute preincubation, Table 16, read-out: GSK3-B TR-FRET BIOCHEMICAL (TR-FRET), IC50
[10] = read-out: GSK3-B (TR-FRET 1 mM ATP), GMean, IC50, 1 mM ATP, geometric mean
[11] = GSK3-A (TR-FRET 1 mM ATP), GMean, IC50, 1 mM ATP, geometric mean
[12] = GSK3-B (TR-FRET 1 mM ATP), GMean, IC50, 1 mM ATP, geometric mean
[13] = 1 nM GSK3α, 4 μM ATP, 30 minute preincubation, read-out: GSK3-A TR-FRET BIOCHEMICAL (TR-FRET), IC50
[14] = 1 nM GSK3b, 2 μM ATP, 30 minute preincubation, read-out: GSK3-B TR-FRET BIOCHEMICAL (TR-FRET), IC50

Chain of GSK3α (GST-full length GSK3α) (P49840 whole entry, canonical isoform): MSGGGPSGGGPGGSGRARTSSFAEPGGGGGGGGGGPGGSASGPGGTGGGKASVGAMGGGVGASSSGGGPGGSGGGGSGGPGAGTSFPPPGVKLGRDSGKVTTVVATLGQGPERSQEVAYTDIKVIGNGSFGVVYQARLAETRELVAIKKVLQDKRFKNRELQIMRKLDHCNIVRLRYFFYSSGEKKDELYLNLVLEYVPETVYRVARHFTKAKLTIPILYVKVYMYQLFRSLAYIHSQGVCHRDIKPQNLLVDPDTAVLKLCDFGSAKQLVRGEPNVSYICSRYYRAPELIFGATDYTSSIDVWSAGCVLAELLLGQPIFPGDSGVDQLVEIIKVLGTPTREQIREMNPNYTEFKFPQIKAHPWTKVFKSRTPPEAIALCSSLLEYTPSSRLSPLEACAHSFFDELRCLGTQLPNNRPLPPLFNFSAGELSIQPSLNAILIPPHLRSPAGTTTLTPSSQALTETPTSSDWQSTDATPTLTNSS

## CNC(=O)C1CCC2(CC1)C1=C(CC(C)(C)CC1=O)Nc1n[nH]cc12 (stereo not drawn) [Compound 945397]
[1]; [3]
  IC50: 100 to 1000 nM
[2]; [4]
  IC50: 100 to 1000 nM

## CCC1(c2cccc(-c3cc(C)nnc3C)c2)C2=C(CC(C)(C)NC2=O)Nc2n[nH]c(C)c21 (stereo not drawn) [Compound 948765]
[1]; [5]
  IC50: ≤ 100 nM
[2]; [6]
  IC50: ≤ 100 nM

## CC[C@]1(c2cccc(-c3c(C)nn(C)c3C)c2)C2=C(CC(C)(C)NC2=O)Nc2n[nH]c(C)c21 [Compound 947573]
[1]; [5]
  IC50: 100 to 1000 nM
[2]; [6]
  IC50: 1000 to 5000 nM

## CCC1(c2cccc(C(F)(F)F)c2)C2=C(CC(C)N(c3cnc(OC)nc3)C2=O)Nc2n[nH]cc21 (stereo not drawn) [Compound 949352]
[1]; [7]
  IC50: ≤ 100 nM
[1]; [8]
  IC50: 100 to 1000 nM
[2]; [9]
  IC50: ≤ 100 nM
[2]; [10]
  IC50: 1000 to 5000 nM

## C[C@@H]1C[C@]2(CCO1)C1=C(CC(C)(C)CC1=O)Nc1n[nH]cc12 [Compound 899559]
[1]; [7]
  IC50: 100 to 1000 nM
[2]; [9]
  IC50: 1000 to 5000 nM

## CC1(C)CC(=O)C2=C(C1)Nc1n[nH]cc1C21CN(S(=O)(=O)CC2CC2)C1 [Compound 929440]
[1]; [3]
  IC50: ≤ 100 nM
[2]; [4]
  IC50: ≤ 100 nM

## CC1(C)CC(=O)C2=C(C1)Nc1n[nH]cc1C21CCN(S(=O)(=O)c2cccc(Cl)c2F)CC1 [Compound 948118]
[1]; [3]
  IC50: ≤ 100 nM
[1]; [11]
  IC50: ≤ 100 nM
[2]; [4]
  IC50: ≤ 100 nM
[2]; [12]
  IC50: 100 to 1000 nM

## CCC1(c2cccc(-c3ccnc4cc(Cl)c(C)cc34)c2)C2=C(CC(C)(C)NC2=O)Nc2n[nH]cc21 (stereo not drawn) [Compound 948654]
[1]; [5]
  IC50: > 5000 nM
[2]; [6]
  IC50: > 5000 nM

## CC1(C)CC(=O)C2=C(C1)Nc1n[nH]cc1C2(C)c1cc(Cl)ccc1Cl (stereo not drawn) [Compound 806605]
[1]; [5]
  IC50: 1000 to 5000 nM
[2]; [6]
  IC50: > 5000 nM

## CC1(C)CC(=O)C2=C(C1)Nc1n[nH]cc1C21COCCOC1 [Compound 912094]
[1]; [7]
  IC50: 1000 to 5000 nM
[2]; [9]
  IC50: > 5000 nM

## CC1(C)CC(=O)C2=C(C1)Nc1n[nH]cc1C21CCN(S(=O)(=O)c2cccc3ncccc23)CC1 [Compound 947469]
[1]; [3]
  IC50: ≤ 100 nM
[2]; [4]
  IC50: ≤ 100 nM

## CCC1(c2cccc(-c3ccncc3S(C)(=O)=O)c2)C2=C(CC(C)(C)CC2=O)Nc2n[nH]cc21 (stereo not drawn) [Compound 947569]
[1]; [3]
  IC50: ≤ 100 nM
[2]; [4]
  IC50: ≤ 100 nM

## CCC1(c2ccc(C)cc2)C2=C(CC(C)(C)CC2=O)Nc2n[nH]cc21 (stereo not drawn) [Compound 785739]
[1]; [5]
  IC50: 100 to 1000 nM
[2]; [6]
  IC50: > 5000 nM

## Cn1nccc1S(=O)(=O)N1CC2(C1)C1=C(CC(C)(C)CC1=O)Nc1n[nH]cc12 [Compound 932648]
[1]; [3]
  IC50: ≤ 100 nM
[2]; [4]
  IC50: ≤ 100 nM

## CCC1(c2ccccc2)C2=C(CCN(C)C2=O)Nc2n[nH]cc21 (stereo not drawn) [Compound 883867]
[1]; [13]
  IC50: > 5000 nM
[2]; [14]
  IC50: > 5000 nM

## CCC1(c2cccc(-c3cn(C)nc3C)c2)C2=C(CC(C)(C)NC2=O)Nc2n[nH]c(Cl)c21 (stereo not drawn) [Compound 949336]
[1]; [7]
  IC50: ≤ 100 nM
[1]; [8]
  IC50: ≤ 100 nM
[2]; [9]
  IC50: ≤ 100 nM
[2]; [10]
  IC50: 100 to 1000 nM

## CC[C@]1(c2cccc(-c3cnn(C4CCCCC4)c3)c2)C2=C(CC(C)(C)NC2=O)Nc2n[nH]cc21 [Compound 951707]
[1]; [7]
  IC50: 100 to 1000 nM
[2]; [9]
  IC50: 1000 to 5000 nM

## CC1(C)CC(=O)C2=C(C1)Nc1n[nH]cc1C2(C)c1cc(Cl)cc(Cl)c1 (stereo not drawn) [Compound 789337]
[1]; [5]
  IC50: 100 to 1000 nM
[2]; [6]
  IC50: 1000 to 5000 nM

## CC[C@]1(c2cccc(S(=O)(=O)C3CC3)c2)C2=C(CC(C)(C)NC2=O)Nc2[nH]nc(C(F)(F)F)c21 [Compound 948771]
[1]; [5]
  IC50: ≤ 100 nM
[1]; [8]
  IC50: ≤ 100 nM
[2]; [6]
  IC50: ≤ 100 nM
[2]; [10]
  IC50: 100 to 1000 nM

## CC1(C)CC(=O)C2=C(C1)Nc1n[nH]cc1[C@@]21CCC[C@@H](C#N)C1 [Compound 945906]
[1]; [3]
  IC50: 100 to 1000 nM
[2]; [4]
  IC50: 100 to 1000 nM

## CC1(C)CC(=O)C2=C(C1)Nc1n[nH]cc1C21CC2(CCCC2)C1 [Compound 874477]
[1]; [13]
  IC50: ≤ 100 nM
[1]; [11]
  IC50: 100 to 1000 nM
[2]; [14]
  IC50: ≤ 100 nM
[2]; [12]
  IC50: 1000 to 5000 nM

## CN1CC2(C3=C(CC(C)(C)CC3=O)Nc3n[nH]c(C4CC(F)(F)C4)c32)c2ccccc21 (stereo not drawn) [Compound 119047]
[1]; [8]
  IC50: 1000 to 5000 nM
[2]; [10]
  IC50: 100 to 1000 nM

## CC1(C)CC(=O)C2=C(C1)Nc1n[nH]cc1C21CN(S(=O)(=O)c2cccc(F)c2)C1 [Compound 918278]
[1]; [3]
  IC50: ≤ 100 nM
[2]; [4]
  IC50: ≤ 100 nM

## CC[C@@]1(c2cccc(-c3ccnc4cc(F)ccc34)c2)C2=C(CC(C)(C)NC2=O)Nc2n[nH]cc21 [Compound 948519]
[1]; [5]
  IC50: > 5000 nM
[2]; [6]
  IC50: > 5000 nM

## CC[C@@]1(c2cccc(-c3cc(C)nn3-c3ccccc3)c2)C2=C(CC(C)(C)NC2=O)Nc2n[nH]cc21 [Compound 951845]
[1]; [7]
  IC50: 100 to 1000 nM
[2]; [9]
  IC50: 100 to 1000 nM

## CC[C@@]1(c2cccc(N3CCOCC3)c2)C2=C(CC(C)(C)CC2=O)Nc2n[nH]cc21 [Compound 810364]
[1]; [5]
  IC50: > 5000 nM
[2]; [6]
  IC50: > 5000 nM

## CCC1(c2cccc(N3CCN(C)CC3)c2)C2=C(CC(C)(C)CC2=O)Nc2n[nH]cc21 (stereo not drawn) [Compound 810379]
[1]; [5]
  IC50: > 1670 nM
[2]; [6]
  IC50: > 5000 nM

## CC[C@@]1(c2ccccc2)C2=C(Nc3n[nH]cc31)[C@H](C)C[C@@H](C)C2=O [Compound 865199]
[1]; [5]
  IC50: 1000 to 5000 nM
[2]; [6]
  IC50: > 5000 nM

## Cc1[nH]nc2c1C1(CCOCC1)C1=C(CC(C)(C)C(F)C1=O)N2 (stereo not drawn) [Compound 912072]
[1]; [3]
  IC50: 100 to 1000 nM
[2]; [4]
  IC50: 100 to 1000 nM

## CCC1(c2cccc(N(C)C(=O)CCc3ccccc3)c2)C2=C(CC(C)(C)CC2=O)Nc2n[nH]cc21 (stereo not drawn) [Compound 912066]
[1]; [7]
  IC50: ≤ 100 nM
[2]; [9]
  IC50: 100 to 1000 nM

## CC1(C)CC(=O)C2=C(C1)Nc1n[nH]cc1C2(c1ccccc1)c1ccccc1 [Compound 789461]
[1]; [5]
  IC50: 1000 to 5000 nM
[2]; [6]
  IC50: > 5000 nM

## CC1(C)CC2=C(C(=O)[C@H]1F)[C@]1(CC[C@H](C(F)(F)F)CC1)c1c[nH]nc1N2 [Compound 918282]
[1]; [3]
  IC50: ≤ 100 nM
[2]; [4]
  IC50: ≤ 100 nM

## CC1(C)CC(=O)C2=C(C1)Nc1n[nH]c(Br)c1[C@]21CCc2c(F)cccc21 [Compound 806939]
[1]; [5]
  IC50: ≤ 100 nM
[2]; [6]
  IC50: ≤ 100 nM

## CC1(C)CC(=O)C2=C(C1)Nc1n[nH]c(CCC(F)(F)F)c1C21CCc2c(F)cccc21 (stereo not drawn) [Compound 874323]
[1]; [5]
  IC50: 1000 to 5000 nM
[2]; [6]
  IC50: 1000 to 5000 nM

## COc1ncccc1S(=O)(=O)N1CCC2(CC1)C1=C(CC(C)(C)CC1=O)Nc1n[nH]cc12 [Compound 947260]
[1]; [13]
  IC50: ≤ 100 nM
[1]; [11]
  IC50: ≤ 100 nM
[2]; [14]
  IC50: ≤ 100 nM
[2]; [12]
  IC50: 100 to 1000 nM

## CC[C@]1(c2cccc(-c3cnn(C)c3F)c2)C2=C(CC(C)(C)NC2=O)Nc2n[nH]cc21 [Compound 950562]
[1]; [7]
  IC50: ≤ 100 nM
[2]; [9]
  IC50: 100 to 1000 nM

## CCC1(c2cccc(C(F)(F)F)c2)C2=C(CC(C)(C)N(C)C2=O)Nc2n[nH]cc21 (stereo not drawn) [Compound 823130]
[1]; [13]
  IC50: ≤ 100 nM
[2]; [14]
  IC50: 100 to 1000 nM

## CC[C@]1(c2cccc(-c3ccnc(C)c3C)c2)C2=C(CC(C)(C)NC2=O)Nc2n[nH]cc21 [Compound 948184]
[1]; [5]
  IC50: ≤ 100 nM
[1]; [8]
  IC50: 100 to 1000 nM
[2]; [6]
  IC50: 100 to 1000 nM
[2]; [10]
  IC50: 1000 to 5000 nM

## CCC1(c2cccc(N3CCc4ccncc43)c2)C2=C(CC(C)(C)CC2=O)Nc2n[nH]cc21 (stereo not drawn) [Compound 912004]
[1]; [7]
  IC50: 1000 to 5000 nM
[2]; [9]
  IC50: > 5000 nM

## CCC1(c2cccc(N(C)c3ncccn3)c2)C2=C(CC(C)(C)NC2=O)Nc2n[nH]c(C(F)F)c21 (stereo not drawn) [Compound 950484]
[1]; [7]
  IC50: ≤ 100 nM
[2]; [9]
  IC50: ≤ 100 nM

## CCC1(c2cccc(N3CCCc4ncccc43)c2)C2=C(CC(C)(C)CC2=O)Nc2n[nH]cc21 (stereo not drawn) [Compound 917076]
[1]; [7]
  IC50: ≤ 100 nM
[2]; [9]
  IC50: ≤ 100 nM

Source: patent publication US20250313563A1, “GLYCOGEN SYNTHASE KINASE 3 INHIBITORS AND USES THEREOF” (The Broad Institute, Inc., priority 2022, published 2025)
